Results published in patent publication US20090076050A1, “SYNERGISTIC TUMOR-KILLING EFFECT OF RADIATION AND BERBERINE COMBINED TREATMENT IN LUNG CANCER” (CHUNG SHAN MEDICAL U., priority 2007, published 2009).

How the values were obtained:
A549 cells [1] = assay: cell cycle distribution by propidium iodide flow cytometry; assay type: cell-based, human; details: 24 h
Description: Flow cytometry was performed by propidium iodide staining (Roche Molecular Biochemical, Indianapolis, USA) according to the manufacturer's instructions. Untreated and treated cells were washed in PBS and fixed in ice-cold ethanol. Fixed cells were pelleted and resuspended in 500 μl of PBS. Then, the cells were stained with propidium iodide and analyzed for cell cycle distribution by flow cytometry with a FACStar caliber (Becton Dickinson) cell sorter. The percentage of each phase was evaluated by Cell-Quest software of the histograms.

[2] = blood biochemical analysis in LLC model mice; assay type: in vivo, C57BL/6 mice; details: all six groups incl. berberine 1.0, 2.0 mg/kg i.p. alone or with IR, end of experiment
Description: (§1) The application of the additive cytotoxicity of IR combined with berberine in cancer treatment was further evidenced in an in vivo Lewis lung carcinoma (LLC) model in mice (Camphausen K, et al. Cancer Res 2001; 61:2207-11). Male C57BL/6 mice aged 4-6 weeks (National Taiwan University Animal Center, Taiwan) were used. To form a tumor xenograft, Lewis lung cells (2×10^6) were injected s.c. into the right hind limb. Animals were randomized into six groups: control, irradiation (IR) alone, berberine (1.0, 2.0 mg/kg) alone, and IR combined with berberine (1.0, 2.0 mg/kg). For tumor irradiation, mice were immobilized in a customized harness that exposed the right hind leg while shielding the remainder of the body by 3.5 cm of lead. Mice were exposed to a single dose of 8 Gy. […] To obtain tumor growth curves, three orthogonal tumor diameters were measured every 4-day intervals with a vernier caliper, and the mean values were calculated. […] Primary tumor growth delay was measured by calipers in two dimensions, and the volumes were calculated according to the formula: tumor volume=(width) 2×length×0.52. […] The tumor volume at the primary site of each group was measured before treatment, and the average tumor volume was designated as T0. When the animals were sacrificed at the end of experiment, the xenografts were removed, and the tumor volume was determined and presented as fold of T0. […]

bcl-2 = assay: immunohistochemistry of bcl-2 in xenograft; assay type: in vivo, C57BL/6 mice
Description: as §1

A549 cells [3] = tested on: A549 cells
Description: Cells were cultured in phenol-red-free medium and irradiated with a […] (Varian, 21-EX). The radiation was delivered as a single dose ranging from 2 to 8 Gy in an appropriate field size at a dose rate of 400 cGy/min. A 3-cm polystyrene block was used under the petri dishes during each irradiation to allow homogeneous backscattering radiation. Control cells were removed from the incubator and placed for the same period of time under the IR source but without radiation treatment. In the combined treatment mortality tests, berberine was added 2 h prior to irradiation.
The enhancing effect of berberine on radio-sensitivity in NSCLC was performed by treating A549 with various concentrations of berberine alone or combined with different dose of IR at 37° C. for 24 h or 48 h followed by MTT assay for cell viability analysis. Thereafter, the medium was changed and incubated with 100 μl MTT (Sigma St Louis, Mo.)/well for 4 h, which was solubilized in isopropanol, and measured spectrophotometrically at 563 nm. […] To further ascertain the effect of berberine on the lethality of IR, clonogenic survival assay was performed to examine long term survival. […] After 14 days, colonies were fixed with methanol, stained with 0.25% crystal violet, and counted if they were consisted of more than 50 cells. […]

LLC cells = assay: MTT cell viability, berberine combined with IR, LLC cells; assay type: cell-based; details: LLC cells (data not shown)
Excerpt: The data were depicted in FIG. 1C after normalization.

[4] = tested on: Lewis lung carcinoma (LLC); assay: Lewis lung carcinoma (LLC) tumor xenograft growth in mice; assay type: in vivo, C57BL/6 mice; details: for tumor volume relative to that before the treatment: LLC in C57BL/6 mice, p<0.001
Description: The application of the additive cytotoxicity of IR combined with berberine in cancer treatment was further evidenced in an in vivo Lewis lung carcinoma (LLC) model in mice (Camphausen K, et al. Cancer Res 2001; 61:2207-11). Male C57BL/6 mice aged 4-6 weeks (National Taiwan University Animal Center, Taiwan) were used. To form a tumor xenograft, Lewis lung cells (2×10^6) were injected s.c. into the right hind limb. Animals were randomized into six groups: control, irradiation (IR) alone, berberine (1.0, 2.0 mg/kg) alone, and IR combined with berberine (1.0, 2.0 mg/kg). For tumor irradiation, mice were immobilized in a customized harness that exposed the right hind leg while shielding the remainder of the body by 3.5 cm of lead. Mice were exposed to a single dose of 8 Gy. Berberine was supplemented (1.0, 2.0 mg/kg, i.p.) to animals 1 day before the radiation exposure, and then twice a week for 4 weeks. To obtain tumor growth curves, three orthogonal tumor diameters were measured every 4-day intervals with a vernier caliper, and the mean values were calculated. The animals were killed (n=5 per group) at the indicated time points, and the primary tumor was dissected and examined. Primary tumor growth delay was measured by calipers in two dimensions, and the volumes were calculated according to the formula: tumor volume=(width) 2×length×0.52. LLC cells were injected s.c. into the right thighs of C57BL/6 mice 10 days before the IR therapy. The animals were randomized into six treatment groups: untreated, 8 Gy radiation in one dose, berberine alone (1.0, 2.0 mg/kg i.p., twice weekly), and berberine combined with IR treatment (FIG. 6A). Berberine was supplemented to the indicated groups one day before the IR treatment and continued for 4 weeks. The tumor volume at the primary site of each group was measured before treatment, and the average tumor volume was designated as T0. When the animals were sacrificed at the end of experiment, the xenografts were removed, and the tumor volume was determined and presented as fold of T0. The blood samples were collected for biochemical analysis. […] Berberine at 1.0 and 2.0 mg/kg, as used with IR, has shrunk the tumor volume down to approximately 48% and 22% of that before the treatment (FIG. 6C, p<0.001). Furthermore, immunohistochemistry was performed to detect the level of beclin-1 and bcl-2 proteins in the xenograft. Primary tumors were fixed and then embedded in paraffin. The sections were stained with anti-bcl-2 mouse-monoclonal antibody (1:100, Santa Cruz Biotechnology, Santa Cruz, Calif.) or anti-beclin-1 rabbit polyclonal antiserum (1:50, Santa Cruz Biotechnology, Santa Cruz, Calif.). The sections were then incubated with blocking buffer for 40 min at RT followed by incubation with the primary antibody over night at 4° C. […]

[5] = IR (6 Gy) + 5.0 μM berberine, listed as Ber

SMILES: COc1ccc2cc3[n+](cc2c1OC)CCc1cc2c(cc1-3)OCO2 [berberine, Berberine]
- G0/G1 (A549 cells [1]; IR (6 Gy) + 2.5 μM berberine): 45.5 ± 4.96%
- G2/M (A549 cells [1]; IR (6 Gy) + 2.5 μM berberine): 28.8%
- S (A549 cells [1]; IR (6 Gy) + 2.5 μM berberine): 20.1 ± 2.26%
- sub G1 (A549 cells [1]; IR (6 Gy) + 2.5 μM berberine): 5.6 ± 0.18%
- G2/M (A549 cells [1]; IR (6 Gy) + 2.5 μM berberine, listed as Ber): 28.8 ± 2.91%
- G0/G1 (A549 cells [1]; IR (6 Gy) + 5.0 μM berberine): 36.2 ± 4.15%
- G2/M (A549 cells [1]; IR (6 Gy) + 5.0 μM berberine): 40.5%
- S (A549 cells [1]; IR (6 Gy) + 5.0 μM berberine): 14.8 ± 2.05%
- sub G1 (A549 cells [1]; IR (6 Gy) + 5.0 μM berberine): 8.5%
- G2/M (A549 cells [1]; [5]): 40.5 ± 4.55%
- sub G1 (A549 cells [1]; [5]): 8.5 ± 0.22%
- G0/G1 (A549 cells [1]; IR (6 Gy) + 10 μM berberine): 33.9 ± 4.01%
- G2/M (A549 cells [1]; IR (6 Gy) + 10 μM berberine): 41.7%
- S (A549 cells [1]; IR (6 Gy) + 10 μM berberine): 15.5 ± 1.81%
- sub G1 (A549 cells [1]; IR (6 Gy) + 10 μM berberine): 8.9 ± 0.25%
- G2/M (A549 cells [1]; IR (6 Gy) + 10 μM berberine, listed as Ber): 41.7 ± 3.91%
- G0/G1 (A549 cells [1]; IR (6 Gy) + 20 μM berberine): 37.2 ± 4.27%
- G2/M (A549 cells [1]; IR (6 Gy) + 20 μM berberine): 30.5 ± 3.18%
- S (A549 cells [1]; IR (6 Gy) + 20 μM berberine): 16.7 ± 2.33%
- sub G1 (A549 cells [1]; IR (6 Gy) + 20 μM berberine): 15.6 ± 1.26%
- serum levels of AST, ALT, urea nitrogen, creatinine, complete blood cell counts, triglyceride and total cholesterol [2]: no difference among groups
- bcl-2 protein expression in xenograft (bcl-2; berberine alone groups): reduced
- bcl-2 protein expression in xenograft (bcl-2; co-treatment groups (berberine + IR)): reduced
- cell viability (A549 cells [3]; IR applied to cells incubated with berberine, 24 h and 48 h, A549 (FIG. 1B)): decreased
- combination effect on cell viability (A549 cells [3]; berberine combined with 6 Gy IR, 24 h, A549 (FIG. 1A)): conspicuous
- dose and time dependent synergic-killing effect (LLC cells): also observed
- tumor volume relative to that before the treatment ([4]; berberine 1.0 mg/kg i.p. twice weekly for 4 weeks with IR 8 Gy): approximately 48%
- tumor volume relative to that before the treatment ([4]; berberine 2.0 mg/kg i.p. twice weekly for 4 weeks with IR 8 Gy): ~22%
- tumor size in tumor growth curves ([4]; berberine (1.0, 2.0 mg/kg) combined with IR 8 Gy, LLC in mice (FIG. 6B)): considerable reduced size
- growth of the xenograft ([4]; berberine alone (1.0, 2.0 mg/kg i.p., twice weekly), LLC in mice): slowed down
